Reference: patent publication US8377986B2, “Amino acid derivatives” (Proximagen Ltd., priority 2007, dated 2013)

Test: Pharmacokinetic analysis: apparent half-life of L-Dopa in rat plasma after dosing prodrug co-dosed with Benserazide
Assay type: in vivo
Details: male Wistar rats, L-Dopa generated from prodrug
Experimental: The compound of the invention (I) and comparison compounds (II-VII) were tested in an assay which measures parameters relevant to the pharmacokinetic profile of the test compound. The assay measured the length of time L-dopa remained in the blood of test animals Naïve male Wistar rats (bodyweight=250-500 g) were used for the pharmacokinetic studies. Animals were fasted overnight. The compound of interest was dissolved in 0.9% saline and co-dosed with Benserazide (10 mg/kg) at a molecular weight equivalent dose to 12.5 mg/kg L-Dopa. Blood samples were taken via a butterfly needle located into the lateral tail vein and collected into sample tubes containing heparin as the anti-coagulant. Blood samples were centrifuged at 5000 rpm for 10 minutes; the supernatant plasma was removed and stored at −80° C. Stock solutions of 10 mM L-Dopa and Warfarin were prepared in 20% TFA, 10 mM sodium meta bisulphite and DMSO, respectively. […] Quantification of L-Dopa and Warfarin was achieved by monitoring the transitions of m/z=198.075/152.1 and […], respectively. The apparent half-life of the L-Dopa generated from the prodrugs was calculated from the terminal plasma samples using non compartment models of WinNonLin (Pharsight California USA) with no weighting.

## COC(=O)[C@@H](N)Cc1ccc(OC(=O)CC(C)(C)C)c(OC(=O)CC(C)(C)C)c1.Cl [I, (S)-2-[3,4-Bis-(3,3-dimethyl-butyryloxy)-phenyl]-1-methoxycarbonyl-ethyl-ammonium chloride]
  apparent half-life compared with structurally analogous comparison compounds: significantly greater than the structurally analogous comparison compounds
